Columns and labels:
TAS2R7 = biological target: T1, TAS2R7 (Homo sapiens, UniProt Q9NYW3); experiment: Calcium mobilization assay, HEK293T-Gα16gust44 cells expressing TAS2R7; settings: maximal concentration tested: sucralose 100 mM, neotame 30 µM, Ace-K 300 mM, RebA 4 mM, RebM 4 mM, mogroside V 5 mM, erythritol 200 mM, D-allulose 500 mM, thaumatin 100 mM
T1 sequence (Q9NYW3 1-318): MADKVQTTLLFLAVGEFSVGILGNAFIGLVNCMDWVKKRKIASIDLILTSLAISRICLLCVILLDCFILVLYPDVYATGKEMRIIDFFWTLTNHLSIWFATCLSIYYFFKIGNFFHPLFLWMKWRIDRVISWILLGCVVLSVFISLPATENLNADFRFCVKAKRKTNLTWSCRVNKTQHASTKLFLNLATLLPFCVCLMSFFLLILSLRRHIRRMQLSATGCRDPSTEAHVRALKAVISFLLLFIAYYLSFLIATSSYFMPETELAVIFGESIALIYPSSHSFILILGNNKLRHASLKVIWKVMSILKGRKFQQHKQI
Method: (§1) Different concentration ranges were tested depending on the injected sweet compound. […] All of the concentration-receptor combinations were measured in triplicate, and each experiment was repeated at least 3 times. The Ca^2+ change was expressed as a fractional change in fluorescent light intensity: ΔF/F = (F − F0)/F0, where F was the fluorescent light intensity at each point, and F0 was the value of fluorescent light emitted prior to stimulus application. To calculate dose–response relationships, the changes in fluorescence upon stimulus application were averaged, mock-subtracted and baseline-corrected. The resulting obtained dose–response data were adjusted by using a 4-parameter logistic equation. The half-maximal effective concentration (EC50) was calculated by using SigmaPlot software (Systat Software, San Jose, CA, USA) as described in supplemental Supplementary Figs. S1, S2, and S3.

TAS2R1 = biological target: T2, TAS2R1 (Homo sapiens, UniProt Q9NYW7); experiment: Calcium mobilization assay, HEK293T-Gα16gust44 cells expressing TAS2R1; settings: for Response of TAS2R1: maximal concentration tested: sucralose 100 mM, neotame 30 µM, Ace-K 300 mM, RebA 4 mM, RebM 4 mM, mogroside V 5 mM, erythritol 200 mM, D-allulose 500 mM, thaumatin 100 mM
T2 sequence (Q9NYW7 1-299): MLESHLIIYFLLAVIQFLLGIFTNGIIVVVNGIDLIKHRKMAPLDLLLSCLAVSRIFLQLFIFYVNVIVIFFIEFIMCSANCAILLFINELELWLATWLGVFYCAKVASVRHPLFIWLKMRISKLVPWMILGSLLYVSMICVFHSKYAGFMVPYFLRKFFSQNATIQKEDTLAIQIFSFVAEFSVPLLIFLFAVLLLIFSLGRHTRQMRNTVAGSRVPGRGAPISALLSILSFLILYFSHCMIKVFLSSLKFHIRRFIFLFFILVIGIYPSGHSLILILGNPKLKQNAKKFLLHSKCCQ
Method: (§2) Different concentration ranges were tested depending on the injected sweet compound. […] All of the concentration-receptor combinations were measured in triplicate, and each experiment was repeated at least 3 times. The Ca^2+ change was expressed as a fractional change in fluorescent light intensity: ΔF/F = (F − F0)/F0, where F was the fluorescent light intensity at each point, and F0 was the value of fluorescent light emitted prior to stimulus application. To calculate dose–response relationships, the changes in fluorescence upon stimulus application were averaged, mock-subtracted and baseline-corrected. The resulting obtained dose–response data were adjusted by using a 4-parameter logistic equation.

TAS2R20 = biological target: T3, TAS2R20 (Homo sapiens, UniProt P59543); experiment: Calcium mobilization assay, HEK293T-Gα16gust44 cells expressing TAS2R20; settings: maximal concentration tested: sucralose 100 mM, neotame 30 µM, Ace-K 300 mM, RebA 4 mM, RebM 4 mM, mogroside V 5 mM, erythritol 200 mM, D-allulose 500 mM, thaumatin 100 mM
T3 sequence (P59543 1-309): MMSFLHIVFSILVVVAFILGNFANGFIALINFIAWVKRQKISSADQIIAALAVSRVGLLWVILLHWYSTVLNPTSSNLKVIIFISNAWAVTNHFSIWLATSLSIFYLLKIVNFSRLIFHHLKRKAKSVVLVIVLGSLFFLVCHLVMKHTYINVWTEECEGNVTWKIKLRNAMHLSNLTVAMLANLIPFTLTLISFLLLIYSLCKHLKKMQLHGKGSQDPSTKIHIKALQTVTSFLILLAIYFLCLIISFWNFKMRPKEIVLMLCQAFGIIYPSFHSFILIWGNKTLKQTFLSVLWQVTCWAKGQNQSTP
Method: as §2

TAS2R16 = biological target: T4, TAS2R16 (Homo sapiens, UniProt Q9NYV7); experiment: Calcium mobilization assay, HEK293T-Gα16gust44 cells expressing TAS2R16; settings: for Response of TAS2R16: maximal concentration tested: sucralose 100 mM, neotame 30 µM, Ace-K 300 mM, RebA 4 mM, RebM 4 mM, mogroside V 5 mM, erythritol 200 mM, D-allulose 500 mM, thaumatin 100 mM
T4 sequence (Q9NYV7 1-291): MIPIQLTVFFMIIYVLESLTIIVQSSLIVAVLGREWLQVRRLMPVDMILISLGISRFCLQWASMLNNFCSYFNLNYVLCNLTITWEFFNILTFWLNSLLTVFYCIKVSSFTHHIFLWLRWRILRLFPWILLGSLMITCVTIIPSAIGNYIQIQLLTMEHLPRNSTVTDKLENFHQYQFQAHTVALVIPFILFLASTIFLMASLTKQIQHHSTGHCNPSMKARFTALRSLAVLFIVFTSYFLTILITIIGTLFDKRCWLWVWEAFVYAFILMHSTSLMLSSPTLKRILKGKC
Method: as §2

TAS2R31 = biological target: T5, TAS2R31 (Homo sapiens, UniProt P59538); experiment: Calcium mobilization assay, HEK293T-Gα16gust44 cells expressing TAS2R31; settings: maximal concentration tested: sucralose 100 mM, neotame 30 µM, Ace-K 300 mM, RebA 4 mM, RebM 4 mM, mogroside V 5 mM, erythritol 200 mM, D-allulose 500 mM, thaumatin 100 mM
T5 sequence (P59538 1-309): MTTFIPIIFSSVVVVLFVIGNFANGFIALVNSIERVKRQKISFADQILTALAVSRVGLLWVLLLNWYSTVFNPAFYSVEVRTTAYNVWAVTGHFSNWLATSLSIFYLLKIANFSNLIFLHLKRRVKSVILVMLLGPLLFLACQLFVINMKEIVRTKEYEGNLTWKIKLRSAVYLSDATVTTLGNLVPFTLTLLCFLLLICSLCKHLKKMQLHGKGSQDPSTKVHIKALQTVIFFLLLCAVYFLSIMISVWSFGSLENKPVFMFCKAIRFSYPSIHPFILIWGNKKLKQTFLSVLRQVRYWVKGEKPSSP
Method: as §2

TAS2R39 = biological target: T6, TAS2R39 (Homo sapiens, UniProt P59534); experiment: Calcium mobilization assay, HEK293T-Gα16gust44 cells expressing TAS2R39; settings: maximal concentration tested: sucralose 100 mM, neotame 30 µM, Ace-K 300 mM, RebA 4 mM, RebM 4 mM, mogroside V 5 mM, erythritol 200 mM, D-allulose 500 mM, thaumatin 100 mM
T6 sequence (P59534 1-338): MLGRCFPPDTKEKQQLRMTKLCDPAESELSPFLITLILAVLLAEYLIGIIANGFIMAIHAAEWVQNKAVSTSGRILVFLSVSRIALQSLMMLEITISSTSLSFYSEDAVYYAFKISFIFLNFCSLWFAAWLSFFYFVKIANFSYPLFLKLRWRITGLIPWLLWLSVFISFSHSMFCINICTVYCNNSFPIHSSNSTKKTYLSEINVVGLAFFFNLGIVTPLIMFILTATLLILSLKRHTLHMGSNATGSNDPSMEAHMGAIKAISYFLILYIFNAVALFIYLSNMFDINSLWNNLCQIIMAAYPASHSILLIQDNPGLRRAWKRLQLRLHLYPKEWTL
Method: as §2

TAS2R3 = biological target: T7, TAS2R3 (Homo sapiens, UniProt Q9NYW6); experiment: Calcium mobilization assay, HEK293T-Gα16gust44 cells expressing TAS2R3; settings: maximal concentration tested: sucralose 100 mM, neotame 30 µM, Ace-K 300 mM, RebA 4 mM, RebM 4 mM, mogroside V 5 mM, erythritol 200 mM, D-allulose 500 mM, thaumatin 100 mM
T7 sequence (Q9NYW6 1-316): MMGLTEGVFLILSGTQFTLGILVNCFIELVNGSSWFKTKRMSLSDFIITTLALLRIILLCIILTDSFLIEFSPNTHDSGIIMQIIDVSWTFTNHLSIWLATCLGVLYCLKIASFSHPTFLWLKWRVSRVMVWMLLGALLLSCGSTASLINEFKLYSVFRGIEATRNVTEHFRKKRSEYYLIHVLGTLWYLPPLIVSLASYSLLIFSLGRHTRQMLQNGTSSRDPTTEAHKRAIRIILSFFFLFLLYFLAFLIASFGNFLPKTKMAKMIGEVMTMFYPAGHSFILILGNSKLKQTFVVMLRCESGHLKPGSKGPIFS
Method: as §1

Response of TAS2R7 (TAS2R7) | Response of TAS2R1 (TAS2R1) | Response of TAS2R20 (TAS2R20) | Response of TAS2R16 (TAS2R16) | Response of TAS2R31 (TAS2R31) | Response of TAS2R39 (TAS2R39) | Response of TAS2R3 (TAS2R3) | EC50 (TAS2R1; TAS2R1 EC50) [µM] | Molecule | EC50 (TAS2R16; read-out: TAS2R16 EC50) [µM] | concentrations at which TAS2R16 was activated (TAS2R16) [mM]
− | − | − | − | − | − | − |  | COC(=O)[C@H](Cc1ccccc1)NC(=O)[C@H](CC(=O)O)NCCC(C)(C)C [Neotame] |  | 
− | − | − | − | − | − | − |  | OC[C@@H](O)[C@@H](O)CO [Erythritol, erythritol] |  | 
− | − | − | − | − | − | − |  | C=C1C[C@@]23CC[C@H]4[C@@](C)(CCC[C@@]4(C)C(=O)O[C@@H]4O[C@H](CO)[C@@H](O)[C@H](O[C@@H]5O[C@H](CO)[C@@H](O)[C@H](O)[C@H]5O)[C@H]4O[C@@H]4O[C@H](CO)[C@@H](O)[C@H](O)[C@H]4O)[C@@H]2CC[C@]1(O[C@@H]1O[C@H](CO)[C@@H](O)[C@H](O[C@@H]2O[C@H](CO)[C@@H](O)[C@H](O)[C@H]2O)[C@H]1O[C@@H]1O[C@H](CO)[C@@H](O)[C@H](O)[C@H]1O)C3 [RebM, Rebaudioside M] |  | 
− | − | − | − | − | − | − |  | thaumatin |  | 
− | #^a | − | − | §^a | − | − | > 100000 | OC[C@H]1O[C@H](O[C@]2(CCl)O[C@H](CCl)[C@@H](O)[C@@H]2O)[C@H](O)[C@@H](O)[C@H]1Cl [Sucralose, sucralose] |  | 

Further lines, the molecule ahead of its results:

Molecule | Response of TAS2R7 (TAS2R7) | Response of TAS2R1 (TAS2R1) | Response of TAS2R20 (TAS2R20) | Response of TAS2R16 (TAS2R16) | Response of TAS2R31 (TAS2R31) | Response of TAS2R39 (TAS2R39) | Response of TAS2R3 (TAS2R3) | EC50 (TAS2R1; TAS2R1 EC50) [µM] | EC50 (TAS2R16; read-out: TAS2R16 EC50) [µM] | concentrations at which TAS2R16 was activated (TAS2R16) [mM]
C[C@H](CC[C@@H](O[C@@H]1O[C@H](CO[C@@H]2O[C@H](CO)[C@@H](O)[C@H](O)[C@H]2O)[C@@H](O)[C@H](O)[C@H]1O[C@@H]1O[C@H](CO)[C@@H](O)[C@H](O)[C@H]1O)C(C)(C)O)[C@H]1CC[C@@]2(C)[C@@H]3CC=C4[C@@H](CC[C@H](O[C@@H]5O[C@H](CO[C@@H]6O[C@H](CO)[C@@H](O)[C@H](O)[C@H]6O)[C@@H](O)[C@H](O)[C@H]5O)C4(C)C)[C@]3(C)[C@H](O)C[C@]12C [Mogroside V, mogroside V] | − | − | − | + | − | − | − |  | 1180 ± 440 | 
CC1=CC(=O)NS(=O)(=O)O1 [Ace-K, acesulfame-K] | − | − | − | − | #^b | − | − |  |  | 
O=C(CO)[C@H](O)[C@H](O)[C@H](O)CO [D-allulose] | − | − | − | + | − | − | − |  |  | > 300
